These are literature values, as cited in patent US7608126B1, “Method for horticulture plant rejuvenation” (priority 2006, dated 2009).

Each structure is given as a SMILES string.

Consider `C[C@]12CC[C@H](O)CC1=CC[C@@H]1[C@@H]2CC[C@]2(C)C(=O)CC[C@@H]12` [DHEA, dehydroepiandrosterone], for which the solubility in water entry is “not very soluble in water”.
